Source: PubChem BioAssay AID330 (DTP/NCI, 2004)
Values joined by “and” are separate entries in the source; they are usually repeats but may differ in a detail not shown here. Equal values may be shown once. Inconclusive results and toxic doses are left out.

Tested on: P388 leukemia ip, CD2F1 mice, survival T/C
Test: NCI In Vivo Anticancer Drug Screen. Data for tumor model P388 Leukemia (intraperitoneal) in CD2F1 (CDF1) mice
Conditions: endpoint: median survival time, higher = longer survival
In short: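 Mice carrying the transplanted tumor received test compound or vehicle. Survival was recorded in each group, and the value is the treated-group measurement divided by that of the vehicle-treated control group.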

[1] = dose: 100.0 mg/kg/injection, schedule: Q04DX003 (ip), vehicle: Klucel (hydroxypropylcellulose) (HPC)
[2] = dose: 60.0 mg/kg/injection, schedule: Q01DX005 (ip), vehicle: saline with Tween-80
[3] = dose: 120.0 mg/kg/injection, schedule: Q01DX005 (ip), vehicle: saline with Tween-80
[4] = dose: 240.0 mg/kg/injection, schedule: Q01DX005 (ip), vehicle: saline with Tween-80
[5] = dose: 50.0 mg/kg/injection, schedule: Q01DX005 (ip), vehicle: saline with Tween-80
[6] = dose: 100.0 mg/kg/injection, schedule: Q01DX005 (ip), vehicle: saline with Tween-80
[7] = dose: 200.0 mg/kg/injection, schedule: Q01DX005 (ip), vehicle: saline with Tween-80
[8] = dose: 100.0 mg/kg/injection, schedule: Q01DX009 (ip), vehicle: saline with Tween-80
[9] = dose: 200.0 mg/kg/injection, schedule: Q01DX009 (ip), vehicle: saline with Tween-80
[10] = dose: 400.0 mg/kg/injection, schedule: Q01DX009 (ip), vehicle: saline with Tween-80
[11] = dose: 100.0 mg/kg/injection, schedule: Q01DX001 (ip), vehicle: Klucel (hydroxypropylcellulose) (HPC)
[12] = dose: 200.0 mg/kg/injection, schedule: Q01DX001 (ip), vehicle: Klucel (hydroxypropylcellulose) (HPC)
[13] = dose: 50.0 mg/kg/injection, schedule: Q01DX005 (ip), vehicle: Klucel (hydroxypropylcellulose) (HPC)
[14] = dose: 100.0 mg/kg/injection, schedule: Q01DX005 (ip), vehicle: Klucel (hydroxypropylcellulose) (HPC)
[15] = dose: 200.0 mg/kg/injection, schedule: Q01DX005 (ip), vehicle: Klucel (hydroxypropylcellulose) (HPC)
[16] = dose: 50.0 mg/kg/injection, schedule: Q01DX005 (ip), vehicle: saline + Tween-80 + alcohol
[17] = dose: 100.0 mg/kg/injection, schedule: Q01DX005 (ip), vehicle: saline + Tween-80 + alcohol
[18] = dose: 200.0 mg/kg/injection, schedule: Q01DX005 (ip), vehicle: saline + Tween-80 + alcohol
[19] = dose: 400.0 mg/kg/injection, schedule: Q01DX001 (ip), vehicle: Klucel (hydroxypropylcellulose) (HPC)

COc1ccc(C(SCC(N)C(=O)O)(c2ccccc2)c2ccccc2)cc1 (stereo not drawn)
T/C (dose: 66.0 mg/kg/injection, schedule: Q04DX003 (ip), vehicle: Klucel (hydroxypropylcellulose) (HPC)): 105 % of control | T/C [1]: 150 % of control

Cc1ccc(NCCCC2CCCN3CCCCC23)c2c(=O)c3ccccc3sc12 (stereo not drawn)
T/C (dose: 12.5 mg/kg/injection, schedule: Q01DX005 (ip), vehicle: distilled water + Tween-80): 100 % of control | T/C (dose: 25.0 mg/kg/injection, schedule: Q01DX005 (ip), vehicle: distilled water + Tween-80): 91 % of control | T/C (dose: 50.0 mg/kg/injection, schedule: Q01DX005 (ip), vehicle: distilled water + Tween-80): 90 % of control

O=c1oc2cc(O)ccc2cc1-c1nc2ccccc2o1
T/C [2]: 97 % of control | T/C [3]: 98 % of control | T/C [4]: 96 % of control

OCCCCCOCCOCCOCCOCCOCCCCCO
T/C [5]: 101 % of control | T/C [6]: 101 % of control | T/C [7]: 96 % of control

O=C1C(=O)N(c2ccccc2Cl)C(=O)N1Cc1ccccc1
T/C (dose: 50.0 mg/kg/injection, schedule: Q01DX009 (ip), vehicle: Klucel (hydroxypropylcellulose) (HPC)): 95 % of control | T/C (dose: 100.0 mg/kg/injection, schedule: Q01DX009 (ip), vehicle: Klucel (hydroxypropylcellulose) (HPC)): 98 % of control | T/C (dose: 200.0 mg/kg/injection, schedule: Q01DX009 (ip), vehicle: Klucel (hydroxypropylcellulose) (HPC)): 91 % of control

O=c1[nH]c(=O)n(C2CC(O)C(CO)O2)cc1I (stereo not drawn)
T/C (dose: 40.0 mg/kg/injection, schedule: Q01DX009 (ip), vehicle: saline with Tween-80): 101 % of control | T/C (dose: 80.0 mg/kg/injection, schedule: Q01DX009 (ip), vehicle: saline with Tween-80): 105 % of control | T/C [8]: 118 % of control | T/C (dose: 100.0 mg/kg/injection, schedule: Q04DX003 (ip), vehicle: saline sonified): 110 % of control | T/C (dose: 160.0 mg/kg/injection, schedule: Q01DX009 (ip), vehicle: saline with Tween-80): 104 % of control | T/C [9]: 118 % of control | T/C (dose: 200.0 mg/kg/injection, schedule: Q04DX003 (ip), vehicle: saline sonified): 120 % of control | T/C (dose: 320.0 mg/kg/injection, schedule: Q01DX009 (ip), vehicle: saline with Tween-80): 122 % of control | T/C [10]: 118 % of control | T/C (dose: 400.0 mg/kg/injection, schedule: Q04DX003 (ip), vehicle: saline sonified): 120 % of control

CNC(=O)OCc1nc(SC)n(Cc2ccccc2)c1COC(=O)NC
T/C (dose: 12.5 mg/kg/injection, schedule: Q01DX005 (ip), vehicle: saline with Tween-80): 100 % of control | T/C (dose: 25.0 mg/kg/injection, schedule: Q01DX005 (ip), vehicle: saline with Tween-80): 110 % of control | T/C [5]: 110 % of control and 116 % of control | T/C [6]: 106 % of control and 116 % of control

CC1CCC(C(C)C)C(NC(=O)C[n+]2cccc(C(N)=O)c2)C1 (stereo not drawn)
T/C (dose: 12.5 mg/kg/injection, schedule: Q04DX002 (ip), vehicle: saline): 99 % of control | T/C (dose: 25.0 mg/kg/injection, schedule: Q04DX002 (ip), vehicle: saline): 105 % of control | T/C (dose: 50.0 mg/kg/injection, schedule: Q04DX002 (ip), vehicle: saline): 101 % of control

CC(=O)C1=C([Si](C)(C)C)N=NC1(C)C
T/C [5]: 111 % of control | T/C [6]: 109 % of control | T/C [7]: 102 % of control

CN([NH-])C(=S)[S-].CN([NH-])C(=S)[S-].[Pt+4]
T/C (dose: 25.0 mg/kg/injection, schedule: Q04DX003 (ip), vehicle: Klucel (hydroxypropylcellulose) (HPC)): 107 % of control | T/C (dose: 50.0 mg/kg/injection, schedule: Q04DX003 (ip), vehicle: Klucel (hydroxypropylcellulose) (HPC)): 100 % of control | T/C [1]: 90 % of control

CNC(=S)C(N)CCCC1NC(=S)N(C)C1=O (stereo not drawn)
T/C [2]: 99 % of control | T/C [3]: 89 % of control | T/C [4]: 88 % of control

CCCn1c(Cl)c(/C=N\Nc2ccccc2[N+](=O)[O-])c2ccccc21
T/C (dose: 100.0 mg/kg/injection, schedule: Q01DX001 (ip), vehicle: saline with Tween-80): 92 % of control | T/C (dose: 200.0 mg/kg/injection, schedule: Q01DX001 (ip), vehicle: saline with Tween-80): 92 % of control | T/C (dose: 400.0 mg/kg/injection, schedule: Q01DX001 (ip), vehicle: saline with Tween-80): 93 % of control

CNC1CC2OC(C)(C1OC)n1c3ccccc3c3c4c(c5c6ccccc6n2c5c31)C(=O)NC4 (stereo not drawn)
T/C (dose: 0.75 mg/kg/injection, schedule: Q01DX005 (ip), vehicle: water): 120 % of control | T/C (dose: 1.5 mg/kg/injection, schedule: Q01DX005 (ip), vehicle: water): 90 % of control

[CH3][Sn]([CH3])([CH3])[O]C(=O)CNC(=O)c1ccccc1
T/C (dose: 1.56 mg/kg/injection, schedule: Q01DX001 (ip), vehicle: Klucel (hydroxypropylcellulose) (HPC)): 103 % of control | T/C (dose: 3.12 mg/kg/injection, schedule: Q01DX001 (ip), vehicle: Klucel (hydroxypropylcellulose) (HPC)): 103 % of control

CC1CCC2(OC1)OC1C(O)C3C4CCC5CC(OC6OC(CO)C(OC7OC(CO)C(O)C(OC8OCC(O)C(O)C8O)C7OC7OC(CO)C(O)C(OC8OC(CO)C(O)C(O)C8O)C7O)C(O)C6O)C(O)CC5(C)C4CCC3(C)C1C2C (stereo not drawn)
T/C (dose: 0.62 mg/kg/injection, schedule: Q01DX009 (ip), vehicle: saline): 101 % of control | T/C (dose: 1.25 mg/kg/injection, schedule: Q01DX009 (ip), vehicle: saline): 98 % of control | T/C (dose: 2.5 mg/kg/injection, schedule: Q01DX009 (ip), vehicle: saline): 93 % of control | T/C (dose: 5.0 mg/kg/injection, schedule: Q01DX009 (ip), vehicle: saline): 87 % of control | T/C (dose: 40.0 mg/kg/injection, schedule: Q01DX009 (ip), vehicle: saline): 86 % of control

CCCCCCC1NC(CCCCC)N2C(CCCCC)N12 (stereo not drawn)
T/C (dose: 50.0 mg/kg/injection, schedule: Q01DX001 (ip), vehicle: Klucel (hydroxypropylcellulose) (HPC)): 101 % of control | T/C [11]: 103 % of control | T/C [12]: 95 % of control

CC1=C(c2ccccc2)OC(=O)C(Cl)(Cl)C1N(c1ccccc1)c1ccccc1 (stereo not drawn)
T/C [5]: 88 % of control | T/C [6]: 93 % of control | T/C [7]: 93 % of control

COC(=O)C1=CSCCC1=O
T/C [13]: 105 % of control | T/C [14]: 106 % of control | T/C [15]: 117 % of control

ClCC[N-]CC[N-]CCCl.ClCC[N-]CC[N-]CCCl.[O-][Cl+3]([O-])([O-])O.[Zn+2]
T/C (dose: 5.0 mg/kg/injection, schedule: Q04DX003 (ip), vehicle: saline with Tween-80): 102 % of control | T/C (dose: 10.0 mg/kg/injection, schedule: Q04DX003 (ip), vehicle: saline with Tween-80): 111 % of control

O=S(=O)(OC1=CC2c3ccccc3C1c1ccccc12)C(F)(F)F
T/C [16]: 100 % of control | T/C [17]: 100 % of control | T/C [18]: 103 % of control

O=C(/C=C/c1ccc(OCc2ccccc2)cc1)c1ccccc1[N+](=O)[O-]
T/C (dose: 50.0 mg/kg/injection, schedule: Q01DX009 (ip), vehicle: saline with Tween-80): 104 % of control | T/C [8]: 101 % of control | T/C [9]: 92 % of control

c1cc[c]([GeH][c]2ccccc2)cc1.c1cc[c]([GeH][c]2ccccc2)cc1
T/C (dose: 12.5 mg/kg/injection, schedule: Q01DX005 (ip), vehicle: Klucel (hydroxypropylcellulose) (HPC)): 101 % of control | T/C (dose: 25.0 mg/kg/injection, schedule: Q01DX005 (ip), vehicle: Klucel (hydroxypropylcellulose) (HPC)): 97 % of control | T/C [13]: 100 % of control and 101 % of control | T/C [14]: 99 % of control | T/C [15]: 100 % of control

CN1CC[C@]23c4c5ccc(O)c4OC2C(O)C=C[C@H]3[C@H]1C5 (stereo partly drawn)
T/C [11]: 103 % of control | T/C [12]: 100 % of control | T/C [19]: 110 % of control

CN1C(=O)C2CCC1n1c(=O)n(-c3ccccc3)c(=O)n12 (stereo not drawn)
T/C [11]: 97 % of control | T/C [12]: 99 % of control | T/C [19]: 94 % of control

N#C/C(=C1/OC(=N)C(c2c(Cl)cccc2Cl)C1=O)c1c(Cl)cccc1Cl (stereo not drawn)
T/C [5]: 100 % of control | T/C [6]: 101 % of control

Cc1ccc(NS(=O)(=O)c2ccc([N+](=O)[O-])cc2)c(C)c1
T/C [8]: 100 % of control | T/C [9]: 105 % of control | T/C [10]: 115 % of control

CC12C(=Nc3ccccc31)CCc1ccccc12 (stereo not drawn)
T/C [16]: 99 % of control | T/C [17]: 100 % of control | T/C [18]: 100 % of control
